Test results published in patent US20250275981A1, “HOMOHARRINGTONINE AND PACLITAXEL COMBINATION FOR THE TREATMENT OF BREAST CANCER” (priority 2022, published 2025).
Where two headings read alike, the source gives them in different places.

Tests used:
[1] = test system: TNBC; details: combined with docetaxel, reference [23]; cited from earlier work
[2] = test system: MCF10A cells
Experimental: Cells were authenticated by the supplier (http://www.ATCC.org) and cultured as recommended by ATCC for less than six months from the time of resuscitation. HCC1806, HCC1428 and T47D cells stably expressing triple hemagglutinin (HA)-tagged CREB3L1 (HA-CREB3L1) have been described and characterized previously.
Cells were allowed to attach and grow at 37° C. and 5% CO2. The following day the media was carefully removed from each well and replaced with drug-containing media in triplicate wells, again using the ASSIST PLUS. After 4 days of drug treatment cells were stained with Hoechst and ImageIT® Dead Green to quantify total and live cells as detailed below.
Images of each well of the 384-well plates were acquired using a Thermo Scientific® CellInsight® CX7 High Content Screening (HCS) Platform. Nine fields of view were captured using a 10×(0.4 NA) air objective lens. Images were analyzed using Thermo Scientific HCS Studio® 3 Cell Analysis Software using the Spot Detector bio-application (Cellomics®). Total cells were identified and counted by their Hoechst-stained nuclei at 386 nm (blue) channel 1 (Ch1) and dead cells were quantified from the ImageIT® Dead Green on the 485 nm wavelength (green) channel 2 (Ch2). […] The test well total live cell count was divided by the average of the corresponding solvent control total live cell count, giving the percentage cell viability (% viability). The mean±standard error of the mean (SEM) of the % viability of each set of triplicate wells was determined.
Drug titration experiments were carried out as described for the secondary drug screens, except a range of drug concentrations were tested. […] EC values were determined using PRISM software (GraphPad, v9.2.0) using non-linear curve fit. A student's t-test was used to determine statistically significant differences between the EC values for the two cell lines. Significance was defined as p<0.05.

[3] = test system: HCC1806 cells; experiment: cells; format: cell-based
Excerpt: (§1) Significance was defined as p<0.05.

[4] = test system: MDA-MB-436; experiment: Cell viability drug titration (EC50), 4 days of drug treatment; format: cell-based; details: Homo sapiens
Excerpt: as §1

[5] = test system: MDA-MB-157; experiment: as above; format: cell-based; details: Homo sapiens, MDA-MB-157, 96 h
Excerpt: as §1

[6] = test system: HCC1428 + HA-CREB3L1; experiment: as above; format: cell-based; details: Homo sapiens
Excerpt: as §1

[7] = test system: Hs578T; experiment: as above; format: cell-based; details: Homo sapiens, Hs-578T, 96 h
Excerpt: as §1

[8] = test system: HCC38; experiment: as above; format: cell-based; details: Homo sapiens
Excerpt: as §1

[9] = test system: HCC1395; experiment: as above; format: cell-based; details: Homo sapiens
Excerpt: as §1

[10] = test system: T47D; experiment: as above; format: cell-based; details: Homo sapiens, 96 h
Excerpt: as §1

[11] = test system: MCF7; experiment: as above; format: cell-based; details: Homo sapiens
Excerpt: as §1

[12] = test system: ZR-75-1; experiment: as above; format: cell-based; details: Homo sapiens
Excerpt: as §1

[13] = test system: BT549; experiment: as above; format: cell-based; details: Homo sapiens, BT-549, 96 h
Excerpt: as §1

[14] = test system: HCC1428; experiment: as above; format: cell-based; details: for drug sensitivity of HCC1428 as compared to the corresponding CREB3L1-expressing cells: HCC1428 vs HCC1428 + HA-CREB3L1; for EC50: Homo sapiens
Excerpt: as §1

[15] = test system: T47D + HA-CREB3L1; experiment: as above; format: cell-based; details: Homo sapiens, 96 h
Excerpt: as §1

[16] = test system: HCC1806+HA-CREB3L1 cells; experiment: as above; format: cell-based; details: Homo sapiens, 96 h, single agent
Excerpt: as §1

[17] = test system: anti-apoptotic proteins, including MCL-1, BCL-2 and surviving; details: several TNBC cell lines; reference [21]; cited from earlier work
[18] = test system: MDA-MB-231 TNBC xenografts; details: cited from earlier work
[19] = Homo sapiens, HCC1806, 96 h, HCC1806 parental (CREB3L1-deficient TNBC), single agent, 4 days of drug treatment, read-out: EC50
[20] = 96 h, MDA-MB-436 parental (TNBC), single agent, 4 days, read-out: EC50
[21] = 96 h, HCC1428 + HA-CREB3L1, single agent, 4 days, read-out: EC50
[22] = Hs578T parental (TNBC), single agent, 4 days, read-out: EC50
[23] = 96 h, HCC38 parental (TNBC), single agent, 4 days, read-out: EC50
[24] = 96 h, HCC1395 parental (TNBC), single agent, 4 days, read-out: EC50
[25] = T47D parental (Luminal A, ER+), single agent, 4 days, read-out: EC50
[26] = 96 h, MCF7 parental (Luminal A, ER+), single agent, 4 days, read-out: EC50
[27] = 96 h, ZR-75-1 parental (Luminal A, ER+), single agent, 4 days, read-out: EC50
[28] = BT549 parental (TNBC), single agent, 4 days, read-out: EC50
[29] = 96 h, HCC1428 parental (Luminal A, ER+), single agent, 4 days, read-out: EC50
[30] = T47D + HA-CREB3L1, single agent, 4 days, read-out: EC50

Compound	cytotoxicity towards non-tumorigenic MCF10A cells as compared to HCC1806 cells [2]	drug sensitivity of HCC1428 as compared to the corresponding CREB3L1-expressing cells [14]	EC50 [3, 19] [nM]	cytotoxicity towards CREB3L1-deficient HCC1806 as compared to HCC1806+HA-CREB3L1 cells ([3]; drug titration, 4 days, FIG. 2)	EC50 [4, 20] [nM]	EC50 [6, 21] [nM]	EC50 [7, 22] [nM]	EC50 [8, 23] [nM]	EC50 [9, 24] [nM]	EC50 [10, 25] [nM]	EC50 [16] [nM]	EC50 [11, 26] [nM]	EC50 [12, 27] [nM]	EC50 [13, 28] [nM]	EC50 [14, 29] [nM]	EC50 [15, 30] [nM]	other results
Cc1c(-c2c(-c3ccc(F)o3)sc3ncnc(O[C@H](Cc4ccccc4OCc4ccnn4CC(F)(F)F)C(=O)O)c23)ccc(OCCN2CCN(C)CC2)c1Cl [S63845]																	synergistic activity with docetaxel [1]: synergistic activity
CC(=O)O[C@H]1C[C@H](O[C@H]2[C@@H](O)C[C@H](O[C@H]3[C@@H](O)C[C@H](O[C@H]4CC[C@@]5(C)[C@H](CC[C@@H]6[C@@H]5C[C@@H](O)[C@]5(C)[C@@H](C7=CC(=O)OC7)CC[C@]65O)C4)O[C@@H]3C)O[C@@H]2C)O[C@H](C)[C@H]1O[C@@H]1O[C@H](CO)[C@@H](O)[C@H](O)[C@H]1O [Lanatoside C, lanatoside C]	very sensitive	the opposite was true															cytotoxicity towards CREB3L1-deficient HCC1806 as compared to HCC1806+HA-CREB3L1 cells [3]: showed a preference for killing the more metastatic CREB3L1-deficient HCC1806 TNBC cells; EC50 ([3]; Homo sapiens, HCC1806, 96 h): 143 nM; EC50 ([4]; MDA-MB-436, 96 h): 460 ± 250 nM; EC50 [5]: 550 ± 240 nM; EC50 ([6]; HCC1428, 96 h): 32 ± 8 nM; EC50 [7]: 1000 ± 800 nM; EC50 ([8]; HCC38, 96 h): 300 ± 100 nM; EC50 ([9]; HCC1395, 96 h): 510 ± 300 nM; EC50 ([10]; T47D): 500 ± 50 nM; EC50 ([11]; MCF7, 96 h): 450 ± 490 nM; EC50 ([12]; ZR-75-1, 96 h): 650 ± 510 nM; EC50 [13]: 42 ± 12 nM; EC50 ([14]; HCC1428, 96 h): 35 ± 8 nM; EC50 ([15]; T47D): 89 ± 34 nM
Nc1nc(Cl)nc2c1ncn2[C@H]1C[C@H](O)[C@@H](CO)O1 [Cladribine, cladribine]	Little or no cytotoxicity	increased drug sensitivity	92	showed a preference for killing the more metastatic CREB3L1-deficient HCC1806 TNBC cells	660 ± 180	2200 ± 1700	5700 ± 1200	65 ± 56	10100 ± 1200	9600 ± 1800	182 ± 60	3400 ± 2100	750 ± 350	178 ± 84	740 ± 330	1800 ± 1300	EC50 ([5]; read-out: EC50): 5000 ± 4300 nM
CC(=O)O[C@H]1C(=O)[C@@]2(C)[C@H]([C@H](OC(=O)c3ccccc3)[C@]3(O)C[C@H](OC(=O)[C@H](O)[C@@H](NC(=O)c4ccccc4)c4ccccc4)C(C)=C1C3(C)C)[C@]1(OC(C)=O)CO[C@@H]1C[C@@H]2O [Paclitaxel, (2α,4α,5β,7β,10β,13α)-4, 10-Bis(acetyloxy)-13-{[(2R,3S)-3-(benzoylamino)-2-hydroxy-3-phenylpropanoyl]oxy}-1,7-dihydroxy-9-oxo-5,20-epoxytax-11-en-2-yl benzoate]			1.2 ± 0.5				7.4	2.4	12		1.2 ± 0.4						
COc1cccc2c1C(=O)c1c(O)c3c(c(O)c1C2=O)C[C@@](O)(C(=O)CO)C[C@@H]3O[C@H]1C[C@H](N)[C@H](O)[C@H](C)O1 [Doxorubicin, doxorubicin]			13 ± 4								17 ± 6						EC50 ([3]; HCC1806 parental (CREB3L1-deficient TNBC), single agent, 4 days of drug treatment, read-out: EC50): 13.2 nM
COC(=O)C[C@](O)(CCCC(C)(C)O)C(=O)O[C@@H]1C(OC)=C[C@]23CCCN2CCc2cc4c(cc2[C@H]13)OCO4 [Homoharringtonine, 1-((1S,3aR,14bS)-2-Methoxy-1,5,6,8,9,14b-hexahydro-4H-cyclopenta(a)(1,3)dioxolo(4,5-h)pyrrolo (2,1-b)(3)benzazepin-1-yl) 4-methyl (2R)-2-hydroxy-2-(4-hydroxy-4-methylpentyl)butanedioate]	similar	the opposite was true	29	showed a preference for killing the more metastatic CREB3L1-deficient HCC1806 TNBC cells	33 ± 36	10 ± 3	42 ± 24	58 ± 10	104 ± 31	400 ± 180	42 ± 7	18 ± 9	117 ± 35	89 ± 10	9 ± 3	88 ± 55	EC50 ([5]; read-out: EC50): 7.5 ± 1.2 nM; expression of anti-apoptotic proteins, including MCL-1, BCL-2 and surviving [17]: rapidly reduce the expression; tumor growth ([18]; MDA-MB-231 TNBC xenografts, mice, reference [21]): reduced tumor growth; general toxicity for the mice ([18]; mouse, in vivo): without general toxicity
CC(=O)c1c(C)c2cnc(Nc3ccc(N4CCNCC4)cn3)nc2n(C2CCCC2)c1=O [Palbociclib Isethionate, palbociclib isethionate]	very sensitive		500	showed a preference for killing the more metastatic CREB3L1-deficient HCC1806 TNBC cells	17000 ± 14000	160 ± 250	3200 ± 1400	210 ± 70	4000 ± 2000	13000 ± 9800	1300 ± 490	4400 ± 3500	710 ± 350	12600 ± 4800	21 ± 15	7200 ± 9200	
